C=C(C)[C@@H]1CC[C@]2(CO)CC[C@]3(C)[C@H](CC[C@@H]4[C@@]5(C)CC[C@H](O)C(C)(C)[C@@H]5CC[C@]43C)[C@@H]12
solubility (mole fraction) (in acetone, 278.2 K): 0.000556 | solubility (mole fraction) (in acetone, 288.2 K): 0.000866 | solubility (mole fraction) (in acetone, 298.2 K): 0.00158 | solubility (mole fraction) (in acetone, 308.2 K): 0.00227 | solubility (mole fraction) (in chloroform, 278.2 K): 0.0026 | solubility (mole fraction) (in chloroform, 288.2 K): 0.00338 | solubility (mole fraction) (in chloroform, 298.2 K): 0.00437 | solubility (mole fraction) (in chloroform, 308.2 K): 0.00511 | solubility (mole fraction) (in cyclohexane, 283.2 K): 1.68e-05 | solubility (mole fraction) (in cyclohexane, 288.2 K): 2.7e-05 | solubility (mole fraction) (in cyclohexane, 298.2 K): 6.34e-05 | solubility (mole fraction) (in cyclohexane, 308.2 K): 0.000167 | solubility (mole fraction) (in dichloromethane, 278.2 K): 0.00079 | solubility (mole fraction) (in dichloromethane, 283.2 K): 0.000837 | solubility (mole fraction) (in dichloromethane, 288.2 K): 0.000897 | solubility (mole fraction) (in dichloromethane, 298.2 K): 0.000991 | solubility (mole fraction) (in ethanol, 278.2 K): 0.000579 | solubility (mole fraction) (in ethanol, 288.2 K): 0.000658 | solubility (mole fraction) (in ethanol, 298.2 K): 0.000898 | solubility (mole fraction) (in ethanol, 308.2 K): 0.00113 | solubility (mole fraction) (in ethyl acetate, 278.2 K): 0.000963 | solubility (mole fraction) (in ethyl acetate, 288.2 K): 0.00155 | solubility (mole fraction) (in ethyl acetate, 298.2 K): 0.00207 | solubility (mole fraction) (in ethyl acetate, 308.2 K): 0.00305 | solubility (mole fraction) (in ethyl formate, 278.2 K): 0.000301 | solubility (mole fraction) (in ethyl formate, 288.2 K): 0.000316 | solubility (mole fraction) (in ethyl formate, 298.2 K): 0.000333 | solubility (mole fraction) (in ethyl formate, 308.2 K): 0.000395 | solubility (mole fraction) (in methanol, 278.2 K): 0.000179 | solubility (mole fraction) (in methanol, 288.2 K): 0.000248 | solubility (mole fraction) (in methanol, 298.2 K): 0.000328 | solubility (mole fraction) (in methanol, 308.2 K): 0.000397 | solubility (mole fraction) (in methyl acetate, 278.2 K): 0.000598 | solubility (mole fraction) (in methyl acetate, 288.2 K): 0.000705 | solubility (mole fraction) (in methyl acetate, 298.2 K): 0.000797 | solubility (mole fraction) (in methyl acetate, 308.2 K): 0.000917 | solubility (mole fraction) (in methyl formate, 278.2 K): 0.000187 | solubility (mole fraction) (in methyl formate, 283.2 K): 0.000212 | solubility (mole fraction) (in methyl formate, 288.2 K): 0.000257 | solubility (mole fraction) (in methyl formate, 298.2 K): 0.000316 | solubility (mole fraction) (in n-butanol, 278.2 K): 0.00181 | solubility (mole fraction) (in n-butanol, 288.2 K): 0.00213 | solubility (mole fraction) (in n-butanol, 298.2 K): 0.00238 | solubility (mole fraction) (in n-butanol, 308.2 K): 0.00271 | solubility (mole fraction) (in n-hexanol, 278.2 K): 0.000744 | solubility (mole fraction) (in n-hexanol, 288.2 K): 0.000846 | solubility (mole fraction) (in n-hexanol, 298.2 K): 0.00102 | solubility (mole fraction) (in n-hexanol, 308.2 K): 0.00127 | solubility (mole fraction) (in n-pentanol, 278.2 K): 0.00095 | solubility (mole fraction) (in n-pentanol, 288.2 K): 0.0012 | solubility (mole fraction) (in n-pentanol, 298.2 K): 0.00143 | solubility (mole fraction) (in n-pentanol, 308.2 K): 0.00171 | solubility (mole fraction) (in n-propanol, 278.2 K): 0.00113 | solubility (mole fraction) (in n-propanol, 288.2 K): 0.00127 | solubility (mole fraction) (in n-propanol, 298.2 K): 0.00146 | solubility (mole fraction) (in n-propanol, 308.2 K): 0.0016

From BigSolDB 2.1
